Measurements as given in publication PMC5529423, “ATP-dependent modulation of MgtE in Mg^2+ homeostasis” (Nature Communications, 2017).

How the values were obtained:
[1] = target: T1, TtMgtE (full-length MgtE) (Thermus thermophilus, UniProt Q5SMG8); assay: isothermal titration calorimetry; type: binding
T1 construct: full-length, expressed in E. coli C41 (DE3), Ni-NTA and gel filtration in detergent; homodimer; tag not described
T1 sequence (Q5SMG8 1-450): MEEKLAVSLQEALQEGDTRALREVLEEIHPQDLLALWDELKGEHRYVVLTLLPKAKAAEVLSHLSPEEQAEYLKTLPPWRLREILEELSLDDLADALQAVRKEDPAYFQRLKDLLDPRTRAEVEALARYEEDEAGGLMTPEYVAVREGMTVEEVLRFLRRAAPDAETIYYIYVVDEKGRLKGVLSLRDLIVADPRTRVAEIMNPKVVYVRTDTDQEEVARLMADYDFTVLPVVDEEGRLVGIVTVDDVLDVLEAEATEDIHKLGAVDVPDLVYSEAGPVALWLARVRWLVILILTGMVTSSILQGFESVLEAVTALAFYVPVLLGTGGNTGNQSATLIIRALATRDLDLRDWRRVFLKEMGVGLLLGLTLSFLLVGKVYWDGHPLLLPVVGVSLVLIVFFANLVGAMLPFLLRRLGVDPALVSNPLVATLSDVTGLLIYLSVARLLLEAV

[2] = target: T2, TtMgtE (full-length MgtE) (Thermus thermophilus, UniProt Q5SMG8, R187E); assay: isothermal titration calorimetry; type: binding; settings: 20 °C, no added Mg2+, NTM detergent, ligand solution pH 6.5; CBS domain site
T2 construct: full-length, expressed in E. coli C41 (DE3), Ni-NTA and gel filtration in detergent; homodimer; tag not described
T2 sequence (Q5SMG8 whole entry R187E, the tested form may be a part): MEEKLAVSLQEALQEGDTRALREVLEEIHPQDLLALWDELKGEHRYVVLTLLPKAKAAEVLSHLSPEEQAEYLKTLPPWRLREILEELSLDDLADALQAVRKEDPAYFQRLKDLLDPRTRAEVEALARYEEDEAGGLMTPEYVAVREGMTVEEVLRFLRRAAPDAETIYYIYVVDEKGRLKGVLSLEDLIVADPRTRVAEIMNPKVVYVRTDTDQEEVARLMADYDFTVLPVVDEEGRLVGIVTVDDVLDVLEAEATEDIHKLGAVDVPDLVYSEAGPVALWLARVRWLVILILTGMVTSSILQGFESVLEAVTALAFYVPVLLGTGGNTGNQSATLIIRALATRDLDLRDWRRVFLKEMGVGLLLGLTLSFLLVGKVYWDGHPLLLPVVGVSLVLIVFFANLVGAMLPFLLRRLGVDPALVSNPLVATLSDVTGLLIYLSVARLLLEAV

[3] = target: the molecule itself; assay: crystal structure; full-length MgtE with ATP; vapor diffusion over 9% PEG 4000, 0.2 M MgCl2, 0.05 M MES pH 6.5; 3.6 Å
[4] = target: the molecule itself; assay: crystal structure; cytosolic domain (1-275) with ATP; vapor diffusion over 20-22% PEG 400, 0.2 M MgCl2, 0.1 M HEPES pH 7.4; 3.0 Å

`Nc1ncnc2c1ncn2[C@@H]1O[C@H](COP(=O)(O)OP(=O)(O)O)[C@@H](O)[C@H]1O` [ADP] gave a Kd [1] of 763 µM.

With `Nc1ncnc2c1ncn2[C@@H]1O[C@H](COP(=O)(O)OP(=O)(O)OP(=O)(O)O)[C@@H](O)[C@H]1O` [ATP] the Kd [1] was 415 µM and the isothermal titration calorimetry [2] was “The injection of ATP into the R187E mutant solution still showed the weaker binding to ATP”.

B1: full-length Thermus thermophilus MgtE (natural protein, UniProt Q5SMG8 1-450, looked up)
chain: T1 sequence (Q5SMG8 1-450)
notes: MgtE Mg2+ channel of Thermus thermophilus, full length; crystallised with ATP and Mg2+; That MgtE is a homodimer is said in the introduction, of the earlier full-length structure; also called TtMgtE; wild type MgtE; source: E. coli C41 (DE3), solubilized with DDM, purified (Ni-NTA, Superdex 200 SEC)
B1: binds [3].

B2: cytosolic domain (1-275) of MgtE (domain or fragment, Thermus thermophilus, UniProt Q5SMG8 1-275, looked up)
chain: MEEKLAVSLQEALQEGDTRALREVLEEIHPQDLLALWDELKGEHRYVVLTLLPKAKAAEVLSHLSPEEQAEYLKTLPPWRLREILEELSLDDLADALQAVRKEDPAYFQRLKDLLDPRTRAEVEALARYEEDEAGGLMTPEYVAVREGMTVEEVLRFLRRAAPDAETIYYIYVVDEKGRLKGVLSLRDLIVADPRTRVAEIMNPKVVYVRTDTDQEEVARLMADYDFTVLPVVDEEGRLVGIVTVDDVLDVLEAEATEDIHKLGAVDVPDLVYSE
notes: MgtE Mg2+ channel of Thermus thermophilus, cytosolic domain (N domain and tandem CBS domains), residues 1-275; crystallised with ATP and Mg2+; also called MgtE cytosolic domain; source: E. coli C41 (DE3), purified
B2: binds [4].
